In patent US20050187187A1, “Carboxyl-reduced derivatives of chondroitin sulfate, preparation thereof, use thereof as a medicinal product and the pharmaceutical compositions containing them” (Aventis Pharmas S.A., priority 2003, published 2005):

How the values were obtained:
aggrecanase = assay: Effect on aggrecanase: conversion of recombinant substrate Agg1mut, ELISA with BC-3 antibody; format: biochemical; conditions: for % Conversion: conversion of the substrate by aggrecanase in the supernatant
Protocol: Effect of the carboxyl-reduced derivatives on the aggrecanase in synovial fluids or on preparations of recombinant ADAMTS protein.
The analysis is carried out on 96-well plates. Before the analysis, serial dilutions of the assay compounds are prepared in an aqueous solution.
In each well, a fixed volume of synovial fluid or aggrecanase activity generating a known increase, between 1.0 and 1.4 absorbance units (405 nm), under the conditions of the analysis, is mixed with 3 μl of solution of compound from the respective dilution step. Dulbecco's modified Eagle's medium (DMEM) is added to each well to give a final volume of 300 μl. The plate is then incubated for 1 hour at 37° C. in a carbon dioxide atmosphere.
After the addition of 5 μl of a solution of 1 μg/μl of recombinant substrate Agglmut in DMEM to each well (substrate as described by Bartnik E. et al., EP 785274, 1997), the reagent mixture is incubated for 4 hours at 37° C. under a carbon dioxide atmosphere.
In a first step, the microplate is coated with 100 μl per well of a commercial goat anti-mouse IgG antibody for 1 hour at ambient temperature (5 μg/ml in a phosphate buffered saline solution, pH 7.4 [PBS buffer]). After washing with the PBS buffer containing 0.1% of Tween-20 (washing buffer), the wells are blocked by means of a step consisting of a one hour incubation with 100 μl per well of 5% bovine serum albumin in a PBS buffer containing 0.05% of Tween-20. Following another rinse with the washing buffer, each well is incubated with 100 μl of a solution, diluted to 1:1000, of BC-3 antibody in a PBS buffer containing 0.05% of Tween 20 and 0.5% of bovine serum albumin, at ambient temperature for one hour. This antibody recognizes the typical aggrecanase cleavage fragments (Hughes C. E. et al., Biochem. J. 305 (3), 799-804, 1995).
After another rinse of the analytical plate with the washing buffer, the complete set of mixtures originating from the preceding digestion is transferred to this plate, well by well, and incubated at ambient temperature for one hour. The plate is again washed as above. Next, 100 μl of the second antibody (anti-human IgG antibody labeled with peroxidase, 1:1000 in PBS containing 0.5% of BSA and 0.05% of Tween-20) are added to each well, with subsequent incubation at ambient temperature again for one hour. After a final rinse with the washing buffer, the color development is initiated by adding 100 μl of ABTS substrate solution (2 mg/ml, 2,2′-azinobis (3-ethylbenzothiazolinesulfonic acid) in 40 mM of sodium citrate plus 60 mM of disodium hydrogen phosphate, adjusted to a pH of 4.4 by adding acetic acid; 0.25 μl of 35% hydrogen peroxide added per ml immediately before measurement). The measurement is carried out by means of the screen mode using detection at 405 nm relative to a reference filter (620 nm) with automatic readings at 5-second intervals. The development is stopped as soon as the maximum signal (405 nm) in the absorbance range of 1.0 to 1.4 is reached.
% inhibition of conversion of the substrate by activity of the aggrecanase in the supernatant.

bovine factor Xa [1] = target: T1, bovine factor Xa (Bos taurus, UniProt P00743); assay: Inhibition of factor Xa, chromogenic substrate S-2765 with human antithrombin III; format: biochemical; conditions: calibrated against Enoxaparin standard
T1 sequence (P01008 33-464 partner): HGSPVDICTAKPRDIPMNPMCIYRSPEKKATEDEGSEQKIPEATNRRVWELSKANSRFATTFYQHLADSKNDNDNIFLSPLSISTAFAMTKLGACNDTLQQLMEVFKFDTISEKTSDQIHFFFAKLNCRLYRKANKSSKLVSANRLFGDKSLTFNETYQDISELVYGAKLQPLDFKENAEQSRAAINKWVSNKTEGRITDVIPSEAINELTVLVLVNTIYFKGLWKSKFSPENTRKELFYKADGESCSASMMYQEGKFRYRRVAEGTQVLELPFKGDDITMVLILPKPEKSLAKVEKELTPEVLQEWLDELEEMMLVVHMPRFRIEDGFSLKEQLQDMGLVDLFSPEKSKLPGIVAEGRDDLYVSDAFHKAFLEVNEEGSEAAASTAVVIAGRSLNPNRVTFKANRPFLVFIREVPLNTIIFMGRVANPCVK
T1 sequence (P00743 234-492 limits assumed): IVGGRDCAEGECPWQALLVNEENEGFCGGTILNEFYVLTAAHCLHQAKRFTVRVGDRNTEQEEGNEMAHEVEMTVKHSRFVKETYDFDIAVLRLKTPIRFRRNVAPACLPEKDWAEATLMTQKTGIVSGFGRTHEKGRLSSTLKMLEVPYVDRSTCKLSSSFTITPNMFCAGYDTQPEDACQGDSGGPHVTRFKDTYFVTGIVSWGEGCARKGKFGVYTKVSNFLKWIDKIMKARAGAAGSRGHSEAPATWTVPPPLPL
Protocol: For the calibration, a standard sample of low molecular weight heparin (Enoxaparin) was used as reference.
The serial dilutions of the assay compound are prepared in a 0.046 M Tris buffer, pH 8.4, containing 0.15 M NaCl, 0.007 M EDTA, 0.1% of Tween 80 and 0.12 IU/ml of human antithrombin III. The samples of 50 μl of the respective dilutions are incubated with 50 μl of bovine factor Xa (13.6 U/ml) at 37° C. for 80 seconds. Next, 50 μl of chromogenic substrate, 1.1 mM S-2765, are added. The absorbance at 405 nm is measured in a photometer. The activity of the deblocked factor Xa is indicated by the emission of p-nitroaniline from the substrate.
Compared to the reference heparin compound (100 U/mg), the glycosamonoglycans present a factor Xa, with much lower inhibitory activity: […]

MMP-2 (gelatinase-A) = target: T2, MMP-2 (gelatinase-A) (Homo sapiens, UniProt P08253); assay: MMP-2 inhibitory activity, commercial ELISA kit; format: biochemical; conditions: MMP-2 800 ng/ml; dilution series in PBS buffer, pH 7.5; in words
T2 construct: purchased Amersham Biosciences RPN2617
T2 sequence (P08253 110-660): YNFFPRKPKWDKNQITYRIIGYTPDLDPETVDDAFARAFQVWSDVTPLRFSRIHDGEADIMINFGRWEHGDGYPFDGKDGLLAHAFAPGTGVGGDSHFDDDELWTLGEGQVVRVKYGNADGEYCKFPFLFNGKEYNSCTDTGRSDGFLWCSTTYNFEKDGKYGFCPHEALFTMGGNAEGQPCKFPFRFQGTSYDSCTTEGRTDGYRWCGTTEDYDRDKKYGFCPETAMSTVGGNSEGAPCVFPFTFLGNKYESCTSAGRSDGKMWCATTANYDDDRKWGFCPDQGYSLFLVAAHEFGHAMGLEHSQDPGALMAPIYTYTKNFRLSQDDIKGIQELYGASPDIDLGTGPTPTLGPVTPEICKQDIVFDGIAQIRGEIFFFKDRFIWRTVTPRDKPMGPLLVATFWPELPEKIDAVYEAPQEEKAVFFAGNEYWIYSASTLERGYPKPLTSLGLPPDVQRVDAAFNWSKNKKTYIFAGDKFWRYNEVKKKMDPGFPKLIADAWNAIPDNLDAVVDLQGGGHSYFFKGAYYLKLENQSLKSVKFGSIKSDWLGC
Protocol: Effect of the Carboxyl-Reduced Persulfate Derivative (Example 1) for Human Metalloproteases MMP-2 (gelatinase-A) and MMP7
Commercial ELISA kits (such as those provided, for example, by the company Amersham Biosciences, kits RPN2617 and RPN2620) were used, respectively, to determine the inhibitory activity with respect to the MMP-2 and MMP-7 enzymes. The concentrations of the enzymes are, respectively, 800 ng/ml for MMP-2. The tests were carried out in accordance with the manufacturer's recommendations, by performing a series of dilutions of the compound to be studied in a PBS buffer, pH 7.5.

bovine factor Xa [2] = target: T1, bovine factor Xa; conditions: standard sample used for calibration; cited from earlier work

For “Carboxyl-Reduced and Persulfated Chondroitin Sulfate Sodium Salt [Example 1]”, the “estimated IC50” value (aggrecanase; aggrecanase, estimated) was roughly 4 ng/mL, the “% Conversion” value (aggrecanase; glycosaminoglycan 0.0001 μg/ml) was 100% and the “% Conversion” value (aggrecanase; glycosaminoglycan 0.0003 μg/ml) was 99.0%. For the same substance, the “% Conversion” value (aggrecanase; glycosaminoglycan 0.001 μg/ml) was 95.1%, the “% Conversion” value (aggrecanase; glycosaminoglycan 0.003 μg/ml) was 69.2% and the “% Conversion” value (aggrecanase; glycosaminoglycan 0.01 μg/ml) was 11.6%. For the same substance, the “% Conversion” value (aggrecanase; glycosaminoglycan 0.03 μg/ml) was 14.9%, the “factor Xa inhibitory activity” value (bovine factor Xa [1]) was 1.2 U/mg and the “inhibition of MMP-2” value (MMP-2 (gelatinase-A)) was “inhibited in a concentration-dependent manner”.
In the case of Enoxaparin [reference heparin compound], the “factor Xa inhibitory activity of the reference standard” value (bovine factor Xa [2]) is given as 100 U/mg.
